From patent publication US20120108629A1, “New use of neferine” (Institute of Chinese Materia Medica, China Academy, priority 2009, published 2012)

Experiments:
TRPM8 mRNA = TRPM8 mRNA expression in DRG cells by real-time PCR; settings: DRG cells
Experimental: DRG were aseptically removed and meticulously cleaned the rootlets and connective tissue. The tissue was digested with collagenase and trypsin in succession, and then centrifuged and the digestive liquid was discarded. Cells were prepared into single cell suspension in common culture medium, and then calculated and adjusted to 10^5 nerve cells per ml. It was incubated in culture plates pre-coated with laminin at 37° C. in 5% CO2 for 48 hours. Camptothecine was used to inhibit proliferation of other cells. Culture was continued to obtain DRG cells with a high purity (>98%).
Detection of TRPM8 and TRPV1 mRNA expression: The total RNA of the DRG neuronal cells was extracted in a routine way, after exposure to the tested agents of various concentrations under the normal, low and high temperature conditions respectively. The concentration of RNA was measured and its cDNA was prepared. The desired amount of resulting cDNA and TRPM8 or TRPV1 gene primers were added on the IQ5-Type real-time IQ5-Type real-time PCR meter with GAPDH as the endogenous control to perform extension. Melting curves were generated. Relative gene expression was calculated using the comparative threshold cycle (2-^ΔΔCT) method with the calculated formula as following:
ΔΔCt=(Ct,Target-Ct,GAPDH)x-(Ct,Target-Ct,GAPDH)Control
X represents any one of tested, Control represents double target gene expression after GAPDH correction.
The purified culture medium of DRG cells was added with three different concentrations of test compounds and cultured at 37° C. in 5% CO2 for 24 h. The total RNA was extracted immediately after culture. The TRPM8 agonist hexahydrothymol was positive control group and the normal culture medium was vehicle control group. Then the real-time PCR amplification was performed and TRPM8 mRNA was determined.
The purified culture medium of DRG cells was added with three different concentrations of test compounds and cultured at 37° C. in 5% CO2 for 23 h followed by 39° C. in 5% CO2 for 1 h. The total RNA was extracted immediately after culture. The TRPM8 agonist hexahydrothymol was positive control group and the normal culture medium was vehicle control group. Then the real-time PCR amplification was performed and TRPM8 mRNA was determined.
The purified culture medium of DRG cells was added with three different concentrations of test compounds and cultured at 37° C. in 5% CO2 for 22 h followed by 19° C. in 5% CO2 for 2 h. The total RNA was extracted immediately after culture. The TRPM8 agonist hexahydrothymol was positive control group and the normal culture medium was vehicle control group. Then the real-time PCR amplification was performed and TRPM8 mRNA was determined.

TRPV1 [1] = target: TRPV1 (Rattus norvegicus, UniProt O35433); assay: Intracellular calcium change in DRG cells, Fluo-4 fluorescence (Examples 9-11, Tables 9-11); format: cell-based
Experimental: (§1) Detection of intracellular calcium concentrations of DRG cells: DRG cells cultured under normal, low and high temperature conditions was obtained. The medium was discarded and the cells were washed after certain time. 0.1%F-127, 5 μM of Fluo-4-AM, M fluorescent dye were added and loaded at 25° C. out of light for 30 min. After dye loading, the redundant dye was washed out and buffer and test compounds were added respectively. The cells were put in a closed chamber on a microscope stage. Fluorescence dyed cells were detected with appropriate conditions. The change of fluorescence intensity in each cell was determined and the data were analyzed by software. The change of the intracellular calcium concentration was indicated by fluorescence intensity. The change degree of the intracellular calcium concentration was represented by the percent ratio of the change value of fluorescence intensity before and after administration and the value of fluorescence intensity before administration (Δ[Ca2+]i), i.e. Δ[Ca2+]i=(fluorescence intensity value after administration F-fluorescence intensity value before administration F0)/fluorescence intensity value before administration F0×100%. The change of the intracellular calcium concentration indicated the function of TRP.
(§2) The medium was discarded and the fluorescent dye was added and loaded for 30 min. The change of fluorescence intensity in cell was determined in a closed chamber on a microscope stage and the change of the intracellular calcium concentration was assayed.
as §2
(this is the appropriate stimulation time for the intracellular calcium change after stimulation under 19° C., and the experiment data was not shown). The medium was discarded and the fluorescent dye was added and loaded for 30 min.

TRPV1 mRNA = TRPV1 mRNA expression in DRG cells by real-time PCR; format: cell-based, rat; settings: for TRPV1 mRNA expression (2^−ΔΔCT): 37° C. 24 h
TRPV1 [2] = assay: Intracellular calcium change in DRG cells, Fluo-4 fluorescence (Examples 4-5, Tables 4-5); format: cell-based, rat
Experimental: as §1, §2, §2

[3] = 37° C. 22 h then 19° C. 2 h, 37.5 μmol/L
[4] = 37° C. 22 h then 19° C. 2 h, 75 μmol/L
[5] = 37° C. 22 h then 19° C. 2 h, 150 μmol/L
[6] = 37° C. 23 h then 39° C. 1 h, 37.5 μmol/L
[7] = 37° C. 23 h then 39° C. 1 h, 75 μmol/L
[8] = 37° C. 23 h then 39° C. 1 h, 150 μmol/L

TRPV1 (Rattus norvegicus, UniProt O35433), sequence (O35433 whole entry): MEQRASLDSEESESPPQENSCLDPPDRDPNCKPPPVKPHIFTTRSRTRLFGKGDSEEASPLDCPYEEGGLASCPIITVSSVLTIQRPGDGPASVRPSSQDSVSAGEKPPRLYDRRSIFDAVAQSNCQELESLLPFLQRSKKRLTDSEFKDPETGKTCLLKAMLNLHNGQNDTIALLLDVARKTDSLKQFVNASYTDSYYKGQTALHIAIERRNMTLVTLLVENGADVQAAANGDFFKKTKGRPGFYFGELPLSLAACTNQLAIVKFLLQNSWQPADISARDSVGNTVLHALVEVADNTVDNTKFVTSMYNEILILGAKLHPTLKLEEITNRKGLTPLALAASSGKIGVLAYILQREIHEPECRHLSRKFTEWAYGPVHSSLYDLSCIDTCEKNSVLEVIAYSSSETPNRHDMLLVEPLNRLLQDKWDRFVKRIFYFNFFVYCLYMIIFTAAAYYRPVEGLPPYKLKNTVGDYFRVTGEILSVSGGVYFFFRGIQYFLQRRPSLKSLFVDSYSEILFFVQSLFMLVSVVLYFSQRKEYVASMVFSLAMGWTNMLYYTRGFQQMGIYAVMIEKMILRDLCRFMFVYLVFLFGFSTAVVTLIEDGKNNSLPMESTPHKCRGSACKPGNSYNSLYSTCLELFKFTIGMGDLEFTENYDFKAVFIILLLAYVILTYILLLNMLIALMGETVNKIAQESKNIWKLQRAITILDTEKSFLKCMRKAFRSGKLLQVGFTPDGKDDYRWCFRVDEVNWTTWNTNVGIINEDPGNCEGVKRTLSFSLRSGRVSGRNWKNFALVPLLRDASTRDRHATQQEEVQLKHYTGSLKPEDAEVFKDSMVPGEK

CC1CCC(C(C)C)C(O)C1 (stereo not drawn) [hexahydrothymol, reference compound]
TRPM8 mRNA expression (2^−ΔΔCT) (TRPM8 mRNA; [3]): 3.67 ± 0.93 | TRPM8 mRNA expression (2^−ΔΔCT) (TRPM8 mRNA; [4]): 3.72 ± 1.09 | TRPM8 mRNA expression (2^−ΔΔCT) (TRPM8 mRNA; [5]): 4.07 ± 1.12 | TRPM8 mRNA expression (2^−ΔΔCT) (TRPM8 mRNA; [6]): 0.89 ± 0.25 | TRPM8 mRNA expression (2^−ΔΔCT) (TRPM8 mRNA; [7]): 0.91 ± 0.27 | TRPM8 mRNA expression (2^−ΔΔCT) (TRPM8 mRNA; [8]): 0.96 ± 0.32 | TRPM8 mRNA expression (2^−ΔΔCT) (TRPM8 mRNA; 37° C. 24 h, 37.5 μmol/L): 1.13 ± 0.22 | TRPM8 mRNA expression (2^−ΔΔCT) (TRPM8 mRNA; 37° C. 24 h, 75 μmol/L): 1.20 ± 0.28 | TRPM8 mRNA expression (2^−ΔΔCT) (TRPM8 mRNA; 37° C. 24 h, 150 μmol/L): 1.29 ± 0.31 | Intracellular Calcium changes [(F1 − F0)/F0/%] (TRPV1 [1]; Table 9, DRG cells, 37° C. 24 h, 37.5 μmol/L): 100.14 ± 11.26% | Intracellular Calcium changes [(F1 − F0)/F0/%] (TRPV1 [1]; Table 9, DRG cells, 37° C. 24 h, 75 μmol/L): 101.82 ± 14.89% | Intracellular Calcium changes [(F1 − F0)/F0/%] (TRPV1 [1]; Table 9, DRG cells, 37° C. 24 h, 150 μmol/L): 98.31 ± 12.17% | Intracellular Calcium changes [(F1 − F0)/F0/%] (TRPV1 [1]; Table 10, DRG cells, 37° C. 22 h then 39° C. 2 h, 37.5 μmol/L): 133.49 ± 15.18% | Intracellular Calcium changes [(F1 − F0)/F0/%] (TRPV1 [1]; Table 10, DRG cells, 37° C. 22 h then 39° C. 2 h, 75 μmol/L): 132.01 ± 14.50% | Intracellular Calcium changes [(F1 − F0)/F0/%] (TRPV1 [1]; Table 10, DRG cells, 37° C. 22 h then 39° C. 2 h, 150 μmol/L): 126.08 ± 12.48% | Intracellular Calcium changes [(F1 − F0)/F0/%] (TRPV1 [1]; Table 11, DRG cells, 37° C. 21 h then 19° C. 3 h, 37.5 μmol/L): 96.91 ± 11.34% | Intracellular Calcium changes [(F1 − F0)/F0/%] (TRPV1 [1]; Table 11, DRG cells, 37° C. 21 h then 19° C. 3 h, 75 μmol/L): 96.75 ± 11.08% | Intracellular Calcium changes [(F1 − F0)/F0/%] (TRPV1 [1]; Table 11, DRG cells, 37° C. 21 h then 19° C. 3 h, 150 μmol/L): 95.48 ± 10.23% | TRP V1 mRNA expression(2^−ΔΔCT) (TRPV1 mRNA; [3]): 0.54 ± 0.17 | TRP V1 mRNA expression(2^−ΔΔCT) (TRPV1 mRNA; [4]): 0.48 ± 0.19 | TRP V1 mRNA expression(2^−ΔΔCT) (TRPV1 mRNA; [5]): 0.47 ± 0.15 | TRP V1 mRNA expression(2^−ΔΔCT) (TRPV1 mRNA; [6]): 4.22 ± 0.49 | TRP V1 mRNA expression(2^−ΔΔCT) (TRPV1 mRNA; [7]): 4.01 ± 0.73 | TRP V1 mRNA expression(2^−ΔΔCT) (TRPV1 mRNA; [8]): 4.05 ± 0.81 | TRPV1 mRNA expression (2^−ΔΔCT) (TRPV1 mRNA; 37.5 μmol): 0.96 ± 0.21 | TRPV1 mRNA expression (2^−ΔΔCT) (TRPV1 mRNA; 75 μmol): 1.10 ± 0.28 | TRPV1 mRNA expression (2^−ΔΔCT) (TRPV1 mRNA; 150 μmol): 1.08 ± 0.31 | Intracellular Calcium changes [(F1 − F0)/F0/%] (TRPV1 [2]; Table 4, DRG cells, 37° C. 24 h, 37.5 μmol/L): 116.52 ± 10.22% | Intracellular Calcium changes [(F1 − F0)/F0/%] (TRPV1 [2]; Table 4, DRG cells, 37° C. 24 h, 75 μmol/L): 117.46 ± 13.58% | Intracellular Calcium changes [(F1 − F0)/F0/%] (TRPV1 [2]; Table 4, DRG cells, 37° C. 24 h, 150 μmol/L): 120.65 ± 12.19% | Intracellular Calcium changes [(F1 − F0)/F0/%] (TRPV1 [2]; Table 5, DRG cells, 37° C. 22 h then 39° C. 2 h, 37.5 μmol/L): 107.54 ± 13.09% | Intracellular Calcium changes [(F1 − F0)/F0/%] (TRPV1 [2]; Table 5, DRG cells, 37° C. 22 h then 39° C. 2 h, 75 μmol/L): 108.63 ± 15.17% | Intracellular Calcium changes [(F1 − F0)/F0/%] (TRPV1 [2]; Table 5, DRG cells, 37° C. 22 h then 39° C. 2 h, 150 μmol/L): 112.92 ± 13.19 %
